Target: cruzipain (Cz) (Trypanosoma cruzi, UniProt P25779)
Assay: chromogenic Bz-Pro-Phe-Arg-pNA protease assay on partially purified native cruzipain, […] nm
Format: biochemical

Chain of cruzipain (Cz) (P25779 123-467): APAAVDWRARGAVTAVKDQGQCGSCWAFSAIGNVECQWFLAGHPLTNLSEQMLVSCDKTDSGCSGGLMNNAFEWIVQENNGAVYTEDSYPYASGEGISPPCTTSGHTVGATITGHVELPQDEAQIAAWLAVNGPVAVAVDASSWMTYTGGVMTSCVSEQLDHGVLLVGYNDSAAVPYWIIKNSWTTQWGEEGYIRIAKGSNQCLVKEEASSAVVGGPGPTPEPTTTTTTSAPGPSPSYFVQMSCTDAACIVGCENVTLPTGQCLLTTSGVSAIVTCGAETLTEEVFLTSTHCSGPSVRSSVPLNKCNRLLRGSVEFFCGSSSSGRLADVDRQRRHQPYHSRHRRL

N[C@@H](Cc1cc(I)c(Oc2cc(I)c(O)c(I)c2)c(I)c1)C(=O)O [levothyroxine]
IC50: 38.4 ± 6.82 µM
